Laboratory results from patent publication US20160157483A1, “COMPOSITION FOR THE CLEANING AND PROTECTION OF TECHNICAL SURFACES” (aimecs GmbH, priority 2013, published 2016).

Key:
[1] = test system: Streptococcus gordonii; assay: Antibacterial effect against Streptococcus gordonii, growth by change of optical density; assay type: cell-based; conditions: 5 mg in 6 well plates, 0 h vs 24 h, starting density 1.8; P/S 4%
Method: The microparticles loaded with totarol were then tested for their antibacterial effect against Streptococcus gordonii (S.G.). For this purpose, 5 mg of totarol-loaded microparticles were given into 6 well plates and covered with a solution of S.G. For comparison, 5 mg of unloaded microparticles, 5 mg of free totarol, pure medium (Schaedler Medium of the company BD), medium with S.G. and medium with S.G. and 4% P/S (penicillin streptomycin) as positive control were measured. By means of the change of the optical density the growth of S.G. was determined. The starting density of S.G. was 1.8. In FIG. 3 the measured results at zero hour (left columns) and after 24 hours (right columns) is shown.

[2] = test system: Staphylococcus aureus; assay: Growth of S. aureus in suspension, optical density at 600 nm; assay type: cell-based; conditions: dissolved in ethyl acetate, 6 hours of incubation
Method: The antibacterial effect on Staphylococcus aureus (S. aureus) of totarol and the microparticles loaded with totarol was tested in vitro in a further experiment. It was shown that a concentration of 0.1 mg/ml of totarol dissolved in ethyl acetate (EtAc) was sufficient to inhibit the growth of S. aureus in suspension after 6 hours of incubation.

[3] = test system: Staphylococcus aureus; assay: S. aureus seeded onto agar plates, inhibition zone; assay type: cell-based; conditions: 1 mg pure totarol or 10 mg microparticles loaded with about 1 mg totarol, 24 hours at 37° C.
Method: In further experiments the S. aureus bacteria were seeded onto agar plates and treated with 1 mg of pure totarol, 10 mg of unloaded microparticles, and 10 mg of microparticles loaded with about 1 mg of totarol.

[4] = test system: Staphylococcus aureus; assay: Soaked filter paper on agar plates with S. aureus, inhibition zone; assay type: cell-based; conditions: 24 hours at 37° C., compared with EtAc control
Method: The experiment was repeated with filter paper which was soaked with pure totarol, with microparticles loaded with totarol and with EtAc, and which was incubated on agar plates, onto which S. aureus was cultivated.

[5] = test system: fresh human whole blood; assay: Hemocompatibility in whole blood according to ISO 10993-4; assay type: cell-based; conditions: 1 hour
Method: Finally in vitro tests were performed where totarol and microparticles loaded with totarol were brought into contact with whole blood. The effect on erythrozytes, platelets, leucozytes as well as the complement and coagulation cascade was examined.
The measurements were made according ISO 10993-4, in determining various markers with a central importance within the hemostatic system.
Shown are the means values and standard deviations (n=3).
Shown are the mean values and standard deviations (n=3).

[6] = test system: multi-resistant Staphylococcus aureus (MRSA); conditions: cited from earlier work
[7] = test system: bacteria; conditions: in vitro; cited from earlier work
[8] = test system: human cells; conditions: cited from earlier work

CC(C)c1c(O)ccc2c1CC[C@H]1C(C)(C)CCC[C@]21C [totarol, (4bS,8aS)-4b,8,8-Trimethyl-1-propan-2-yl-5,6,7,8a,9,10-hexahydrophenanthren-2-ol]
reduction of the bacterial concentration (growth of S.G. by optical density) [1]: stronger reduction of the bacterial concentration than totarol-loaded microparticles | concentration sufficient to inhibit the growth of S. aureus in suspension [2]: 0.1 mg/mL | inhibition zone on agar plates [3]: clear inhibition zone | inhibition zone around the filter paper [4]: clear inhibition zone | effects on the hemostatic system ([5]; 0.1 mg/ml totarol, 1 mg/ml totarol MP, vs control and unloaded microparticles): neither totarol nor the microparticles loaded with totarol have negative effects | hemocompatibility ([5]; blood contact): good hemocompatibility | effectiveness against MRSA [6]: effective | minimum concentration where totarol still has an antibacterial effect [7]: 2 µg/mL | concentration at which toxic and inhibits the growth of human cells [8]: more than 5 μg/ml
